Activity calls are given as the source filed them. The rule behind the calls is not given here.
Tested on: rodent carcinogenicity bioassays, tumor incidence
Assay: CCRIS carcinogenicity studies
How it was run: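 Archive of carcinogenicity, mutagenicity, tumor promotion and tumor inhibition results drawn from journals, NCI reports and other sources, expert-reviewed; covers 1985-2011 and is no longer updated.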

Measured: carcinogen call

CC(=O)OC/N=[N+](/C)[O-]
active: Species: FISH, Strain/Sex: MOSQUITOFISH/MALE, FEMALE, Route: IMMERSION, Dose: 0, 10 MG/L IN WATER FOR 2 HR EXPOSURE (STUDY DURATION: 40 WK), Tumor Site: Type of Lesion: LIVER: TUMOR active; positive | Species: MONKEY, Strain/Sex: AFRICAN GREEN/MALE,FEMALE, Route: INTRAPERITONEAL, Dose: 1.94-9.66 G TOTAL DOSE, 1/WK FOR UP TO 89 MO, Tumor Site: Type of Lesion: LIVER: HEPATOCELLULAR CARCINOMA, HEMANGIOSARCOMA, KIDNEY: RENAL CELL CARCINOMA, ESOPHAGUS: SQUAMOUS CELL CARCINOMA, CECU, Tumor Site: Type of Lesion: LIVER: HEPATOCELLULAR CARCINOMA, HEMANGIOSARCOMA, KIDNEY: RENAL CELL CARCINOMA, ESOPHAGUS: SQUAMOUS CELL CARCINOMA, CECU active; positive | Species: MONKEY, Strain/Sex: CYNOMOLGUS/MALE,FEMALE, Route: INTRAPERITONEAL, Dose: 1.94-9.66 G TOTAL DOSE, 1/WK FOR UP TO 89 MO, Tumor Site: Type of Lesion: LIVER: HEPATOCELLULAR CARCINOMA, HEMANGIOSARCOMA, KIDNEY: RENAL CELL CARCINOMA, ESOPHAGUS: SQUAMOUS CELL CARCINOMA, CECU, Tumor Site: Type of Lesion: LIVER: HEPATOCELLULAR CARCINOMA, HEMANGIOSARCOMA, KIDNEY: RENAL CELL CARCINOMA, ESOPHAGUS: SQUAMOUS CELL CARCINOMA, CECU active; positive | Species: MONKEY, Strain/Sex: RHESUS/MALE,FEMALE, Route: INTRAPERITONEAL, Dose: 1.94-9.66 G TOTAL DOSE, 1/WK FOR UP TO 89 MO, Tumor Site: Type of Lesion: LIVER: HEPATOCELLULAR CARCINOMA, HEMANGIOSARCOMA, KIDNEY: RENAL CELL CARCINOMA, ESOPHAGUS: SQUAMOUS CELL CARCINOMA, CECU, Tumor Site: Type of Lesion: LIVER: HEPATOCELLULAR CARCINOMA, HEMANGIOSARCOMA, KIDNEY: RENAL CELL CARCINOMA, ESOPHAGUS: SQUAMOUS CELL CARCINOMA, CECU active; positive | Species: MOUSE, Route: SUBCUTANEOUS, Dose: 0.2-0.4 MG, SINGLE DOSE, Tumor Site: Type of Lesion: UNSPECIFIED: TUMOR active; positive | Species: MOUSE, Strain/Sex: BALB/FEMALE, Route: DERMAL, Dose: 0, 0.5 MG PAINTED ON ANAL REGION 3/WK FOR 24 WK (STUDY DURATION: 24 WK), Tumor Site: Type of Lesion: PERIANAL SEBACEOUS GLAND: SQUAMOUS CELL CARCINOMA, ADENOMA active; positive | Species: MOUSE, Strain/Sex: BALB/MALE, Route: DERMAL, Dose: 0, 0.5 MG PAINTED ON ANAL REGION 3/WK FOR 24 WK (STUDY DURATION: 30 WK), Tumor Site: Type of Lesion: PERIANAL SEBACEOUS GLAND: SQUAMOUS CELL CARCINOMA, BLOOD VESSELS: HEMANGIOMA OR HEMANGIOENDOTHELIOMA active; positive | Species: RAT, Route: INTRAPERITONEAL, SUBCUTANEOUS, Tumor Site: Type of Lesion: BILE DUCT, INTESTINES, KIDNEY, Tumor Site: Type of Lesion: BILE DUCT, INTESTINES, KIDNEY active; positive | Species: RAT, Route: INTRAVENOUS, ORAL, Tumor Site: Type of Lesion: INTESTINES, KIDNEY, LIVER, Tumor Site: Type of Lesion: INTESTINES, KIDNEY, LIVER active; positive | Species: RAT, Route: RECTAL, Tumor Site: Type of Lesion: INTESTINES, KIDNEY active; positive | Species: RAT, Route: SUBCUTANEOUS, Dose: 12.5 MG TOTAL DOSE, 4 DOSES OVER 3 WK, Tumor Site: Type of Lesion: INTESTINES: NEOPLASMS, BILE DUCT: ADENOMA active; positive | Species: RAT, Strain/Sex: DONRYU/MALE, Route: RECTAL, Dose: 1 MG, 1/D FOR 7-26 D, Tumor Site: Type of Lesion: INTESTINES (LARGE): ADENOCARCINOMA, KIDNEY: NEPHROBLASTOMA active; positive

O=NN1CCOC(O)C1 (stereo not given)
active: Species: MOUSE, Strain/Sex: STRAIN-A/FEMALE, Route: ORAL, Dose: 0, 0.2 UMOL/ML IN DRINKING WATER FOR 10 WK (TOTAL DOSE: 0; 53 UMOL) FOLLOWED BY TAP WATER FOR 20 WK (STUDY DURATION: 30, Dose: 0, 0.2 UMOL/ML IN DRINKING WATER FOR 10 WK (TOTAL DOSE: 0; 53 UMOL) FOLLOWED BY TAP WATER FOR 20 WK (STUDY DURATION: 30, Tumor Site: Type of Lesion: LUNG: TUMORS active; positive | Species: RAT, Strain/Sex: F344/FEMALE, Route: GAVAGE, Dose: 0, 22 MG/WK FOR A TOTAL DOSE OF 8.5 MMOL (STUDY DYRATION: 110 WK), Tumor Site: Type of Lesion: LIVER: TUMOR, LUNG: TUMOR active; positive
inactive: Species: RAT, Strain/Sex: F344/FEMALE, Route: ORAL, Dose: 0, 15, 30 MG/L IN DRINKING WATER 5 D/WK FOR 50 WK (TOTAL DOSE: 0; 0.6; 1.2 MMOL) (STUDY DURATION: 124 WK), Dose: 0, 15, 30 MG/L IN DRINKING WATER 5 D/WK FOR 50 WK (TOTAL DOSE: 0; 0.6; 1.2 MMOL) (STUDY DURATION: 124 WK) inactive; negative

NC[N+](=O)[O-]
active: Species: RAT, Strain/Sex: BDVI/FEMALE, Route: GAVAGE, Dose: 0, 38, 76 MG/KG 1/WK FOR DURATION OF STUDY (STUDY DURATION: LIFETIME), Dose: 0, 38, 76 MG/KG 1/WK FOR DURATION OF STUDY (STUDY DURATION: LIFETIME), Tumor Site: Type of Lesion: SPINAL CORD: NEURINOMA, SPINAL NERVES: NEURINOMA active; positive | Species: RAT, Strain/Sex: BDVI/MALE, Route: GAVAGE, Dose: 0, 38, 76 MG/KG 1/WK FOR DURATION OF STUDY (STUDY DURATION: LIFETIME), Dose: 0, 38, 76 MG/KG 1/WK FOR DURATION OF STUDY (STUDY DURATION: LIFETIME), Tumor Site: Type of Lesion: SPINAL CORD: NEURINOMA, SPINAL NERVES: NEURINOMA active; positive

O=C([O-])C(=O)[O-].O=C([O-])C(=O)[O-].[K+].[K+].[O]=[Ti+2]
inactive: Species: MOUSE, Strain/Sex: SWISS/FEMALE, Route: ORAL, Dose: 0, 5 PPM IN DRINKING WATER FOR DURATION OF STUDY (STUDY DURATION: LIFE SPAN) inactive; negative | Species: MOUSE, Strain/Sex: SWISS/MALE, Route: ORAL, Dose: 0, 5 PPM IN DRINKING WATER FOR DURATION OF STUDY (STUDY DURATION: LIFE SPAN) inactive; negative

O=C1OC(c2ccc(O)cc2)(c2ccc(O)cc2)c2ccccc21
active: Species: MOUSE, Strain/Sex: B6C3F1/FEMALE, Route: ORAL, Dose: 0, 3000, 6000, 12000 PPM IN DIET FOR 2 YR (STUDY DURATION: 2 YR), Dose: 0, 3000, 6000, 12000 PPM IN DIET FOR 2 YR (STUDY DURATION: 2 YR), Tumor Site: Type of Lesion: OVARY: BENIGN SEX-CORD STROMAL TUMOR, LIVER: HISTIOCYTIC SARCOMA, LYMPHATIC SYSTEM: MALIGNANT LYMPHOMA, MALIGNANT LYMPHO, Tumor Site: Type of Lesion: OVARY: BENIGN SEX-CORD STROMAL TUMOR, LIVER: HISTIOCYTIC SARCOMA, LYMPHATIC SYSTEM: MALIGNANT LYMPHOMA, MALIGNANT LYMPHO active; positive | Species: MOUSE, Strain/Sex: B6C3F1/MALE, Route: ORAL, Dose: 0, 3000, 6000, 12000 PPM IN DIET FOR 2 YR (STUDY DURATION: 2 YR), Dose: 0, 3000, 6000, 12000 PPM IN DIET FOR 2 YR (STUDY DURATION: 2 YR), Tumor Site: Type of Lesion: LIVER: HISTIOCYTIC SARCOMA, LYMPHATIC SYSTEM: MALIGNANT LYMPHOMA (THYMIC ORIGIN) active; positive | Species: RAT, Strain/Sex: F344/FEMALE, Route: ORAL, Dose: 0, 12000, 25000, 50000 PPM IN DIET FOR 2 YR (STUDY DURATION: 2 YR), Dose: 0, 12000, 25000, 50000 PPM IN DIET FOR 2 YR (STUDY DURATION: 2 YR), Tumor Site: Type of Lesion: ADRENAL MEDULLA: BENIGN PHEOCHROMOCYTOMA, BENIGN OR MALIGNANT PHEOCHROMOCYTOMA active; positive | Species: RAT, Strain/Sex: F344/MALE, Route: ORAL, Dose: 0, 12000, 25000, 50000 PPM IN DIET FOR 2 YR (STUDY DURATION: 2 YR), Dose: 0, 12000, 25000, 50000 PPM IN DIET FOR 2 YR (STUDY DURATION: 2 YR), Tumor Site: Type of Lesion: ADRENAL MEDULLA: BENIGN PHEOCHROMOCYTOMA, KIDNEY(RENAL TUBULE): ADENOMA, ADENOMA OR CARCINOMA active; positive

CC(C)CCC[C@@H](C)[C@H]1CC[C@H]2[C@@H]3C[C@H]4O[C@]45C[C@@H](O)CC[C@]5(C)[C@H]3CC[C@]12C
inactive: Species: RAT, Strain/Sex: STRAIN-CD/FEMALE, Route: INJECTION, Dose: 0, 12.3 UMOL (TOTAL DOSE) 1/6 INJECTED UNDER EACH OF 3 THORACIC AND 3 INGUINAL NIPPLES ONCE (STUDY DURATION: 44 WK) inactive; negative

CNC(=O)c1c(N(C)N=O)ncn1C
active: Species: RAT, Strain/Sex: BD-IX/MALE, FEMALE, Route: ORAL, Dose: 0, 3, 5, 15 MG/KG/D IN DRINKING WATER 5D/WK FOR DURATION OF STUDY (STUDY DURATION: LIFETIME), Dose: 0, 3, 5, 15 MG/KG/D IN DRINKING WATER 5D/WK FOR DURATION OF STUDY (STUDY DURATION: LIFETIME), Tumor Site: Type of Lesion: NASAL CAVITY: TUMOR active; positive
